Results on 14 compounds are retold here after patent US20060128721A1, “Novel formulations of opioid-based treatments of pain comprising substituted 1,4-di-piperidin-4-yl-piperazine derivatives” (priority 2003, published 2006).

In assay [1] the target is T1, cloned human h-NK1 receptors expressed in CHO cells (Homo sapiens, UniProt P25103).
T1 construct: expressed in transfected cells; host or cells: CHO cells
The assay is described as follows: Binding experiment for h-NK1 receptors ([3H]-Substance P displacement). As to conditions: read-out: h-NK1 pIC50 (converted). How it is done: (§1) The compounds according to the invention were investigated for interaction with various neurotransmitter receptors, ion channels and transporter binding sites using the radioligand binding technique. Membranes from tissue homogenates or from cells, expressing the receptor or transporter of interests, were incubated with a radioactively labelled substance ([^3H]- or [^125I] ligand) to label a particular receptor. […] Following incubation, labelled membranes were harvested and rinsed with excessive cold buffer to remove non-bound radioactivity by rapid filtration under suction. Membrane bound radioactivity was counted in a scintillation counter and results were expressed in counts per minute (cpm).
(§2) The compounds were dissolved in DMSO and tested at 10 concentrations ranging from 10^−10 to 10^−5 M.
(§3) The ability of the compounds according to the invention to displace [^3H]-Substance P from cloned human h-NK1 receptors expressed in CHO cells, to displace [^3H]-SR-48968 from cloned human h-NK2 receptors expressed in Sf9 cells, and to displace [^3H]-SR-142801 from cloned human h-NK3 receptors expressed in CHO cells was evaluated.

In assay [2] the target is T2, cloned human h-NK2 receptors expressed in Sf9 cells (Homo sapiens, UniProt P21452).
T2 construct: expressed in transfected cells; host or cells: Sf9 cells
T2 sequence (P21452 1-398): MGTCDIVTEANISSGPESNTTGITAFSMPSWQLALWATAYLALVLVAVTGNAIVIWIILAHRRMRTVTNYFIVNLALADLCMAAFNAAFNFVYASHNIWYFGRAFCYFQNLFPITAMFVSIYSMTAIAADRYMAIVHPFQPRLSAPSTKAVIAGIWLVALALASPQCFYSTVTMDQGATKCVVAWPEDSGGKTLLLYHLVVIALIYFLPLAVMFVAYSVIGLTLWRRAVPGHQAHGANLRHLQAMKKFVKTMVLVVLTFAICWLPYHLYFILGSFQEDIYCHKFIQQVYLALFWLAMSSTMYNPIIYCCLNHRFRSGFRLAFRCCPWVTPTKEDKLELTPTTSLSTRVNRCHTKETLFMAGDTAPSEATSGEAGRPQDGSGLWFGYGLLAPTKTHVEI
The assay is described as follows: Binding experiment for h-NK2 receptors ([3H]-SR-48968 displacement). As to conditions: [3H]-SR-48968, Sf9 cells; read-out: h-NK2 pIC50 (converted). How it is done:
as §1, §2, §3

Assay [3] has as its target T3, cloned human h-NK3 receptors expressed in CHO cells (Homo sapiens, UniProt P29371).
T3 construct: expressed in transfected cells; host or cells: CHO cells
T3 sequence (P29371 1-465): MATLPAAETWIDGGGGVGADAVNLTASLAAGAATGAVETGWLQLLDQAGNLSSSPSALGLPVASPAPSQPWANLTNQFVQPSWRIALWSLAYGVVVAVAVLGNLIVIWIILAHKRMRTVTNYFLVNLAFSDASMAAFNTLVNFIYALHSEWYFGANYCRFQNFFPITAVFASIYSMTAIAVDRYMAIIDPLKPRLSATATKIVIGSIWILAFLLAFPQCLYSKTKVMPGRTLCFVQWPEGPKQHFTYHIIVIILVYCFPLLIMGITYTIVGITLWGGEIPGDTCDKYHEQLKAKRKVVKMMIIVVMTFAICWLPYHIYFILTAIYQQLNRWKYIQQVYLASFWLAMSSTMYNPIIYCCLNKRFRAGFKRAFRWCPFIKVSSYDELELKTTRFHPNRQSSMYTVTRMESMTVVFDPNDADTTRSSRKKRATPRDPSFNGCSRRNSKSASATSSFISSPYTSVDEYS
Briefly: Binding experiment for h-NK3 receptors ([3H]-SR-142801 displacement). As to conditions: [3H]-SR-142801, CHO cells; read-out: h-NK3 pIC50 (converted). As for the experimental part: as §1, §2, §3

T1 sequence (P25103 whole entry): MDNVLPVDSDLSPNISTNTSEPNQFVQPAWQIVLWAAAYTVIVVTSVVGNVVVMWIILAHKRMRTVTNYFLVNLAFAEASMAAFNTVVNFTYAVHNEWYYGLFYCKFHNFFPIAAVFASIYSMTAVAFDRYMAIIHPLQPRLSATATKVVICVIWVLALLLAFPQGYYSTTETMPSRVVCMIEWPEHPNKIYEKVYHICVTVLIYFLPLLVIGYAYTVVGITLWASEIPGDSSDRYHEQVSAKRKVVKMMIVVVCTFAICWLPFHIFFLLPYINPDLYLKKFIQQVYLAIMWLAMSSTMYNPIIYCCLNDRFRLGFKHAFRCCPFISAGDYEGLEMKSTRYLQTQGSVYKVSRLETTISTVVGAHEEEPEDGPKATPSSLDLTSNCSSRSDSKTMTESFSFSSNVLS

Turning to `O=C(c1cccc(Cl)c1)N1CCC(N2CCN([C@H]3CCN(C(=O)c4cc(C(F)(F)F)cc(C(F)(F)F)c4)[C@H](Cc4ccccc4)C3)CC2)CC1` [Compound 32], the values for the IC50 in assay [1], in assay [2] and in assay [3] were 1.58 nM, 631 nM and 158 nM, respectively.
With `Cc1nnsc1C(=O)N1CCC(N2CCN([C@H]3CCN(C(=O)c4cc(C(F)(F)F)cc(C(F)(F)F)c4)[C@@H](Cc4ccccc4)C3)CC2)CC1` [Compound 140], the IC50 in assay [1] was 3.16 nM; in assay [2], 3980 nM; in assay [3], 5010 nM.
For `O=C(C(c1ccccc1)N1CCCC1)N1CCC(N2CCN(C3CCN(C(=O)c4cc(C(F)(F)F)cc(C(F)(F)F)c4)C(Cc4ccccc4)C3)CC2)CC1` (stereo not drawn) [Compound 113] the same measures were 1 nM, 398 nM and 398 nM.
For `COCC(=O)N1CCC(N2CCN([C@H]3CCN(C(=O)c4cc(C(F)(F)F)cc(C(F)(F)F)c4)[C@H](Cc4ccccc4)C3)CC2)CC1` [Compound 104] the same measures were 0.631 nM, 1580 nM and 1580 nM.
For `O=C(c1ccccn1)N1CCC(N2CCN([C@H]3CCN(C(=O)c4cc(C(F)(F)F)cc(C(F)(F)F)c4)[C@H](Cc4ccccc4)C3)CC2)CC1` [Compound 79] the same measures were 6.31 nM, 316 nM and 398 nM.
Turning to `O=C(c1cc(F)c(F)cc1F)N1CCC(N2CCN([C@H]3CCN(C(=O)c4cc(C(F)(F)F)cc(C(F)(F)F)c4)[C@H](Cc4ccccc4)C3)CC2)CC1` [Compound 62], the figures for the IC50 in assay [1], in assay [2] and in assay [3] were 0.631 nM, 398 nM and 251 nM, respectively.
For `CC(C)(C)OC(=O)N1Cc2ccccc2C[C@H]1C(=O)N1CCC(N2CCN([C@H]3CCN(C(=O)c4cc(C(F)(F)F)cc(C(F)(F)F)c4)[C@H](Cc4ccccc4)C3)CC2)CC1` [Compound 90] the same measures were 31.6 nM, 316 nM and 126 nM.
For `O=C(c1cc(C(F)(F)F)cc(C(F)(F)F)c1)N1CC[C@H](N2CCN(C3CCN(c4ncccn4)CC3)CC2)C[C@H]1Cc1ccccc1` [Compound 16] the same measures were 1 nM, 501 nM and 158 nM.
For `O=C(c1cc(C(F)(F)F)cc(C(F)(F)F)c1)N1CCC(N2CCN(C3CCN(C(=O)n4ccnc4)CC3)CC2)CC1Cc1ccccc1` (stereo not drawn) [Compound 12] the same measures were 0.794 nM, 1000 nM and 794 nM.
For `NC(Cc1ccc(O)cc1)C(=O)N1CCC(N2CCN(C3CCN(C(=O)c4cc(C(F)(F)F)cc(C(F)(F)F)c4)C(Cc4ccccc4)C3)CC2)CC1` (stereo not drawn) [Compound 13], the IC50 in assay [1] was 1.26 nM; in assay [2], 631 nM; in assay [3], 1000 nM.
For `O=C(c1cc(C(F)(F)F)cc(C(F)(F)F)c1)N1CCC(N2CCN(C3CCNCC3)CC2)CC1Cc1ccccc1` (stereo not drawn) [Compound 2] the same measures were 2.51 nM, 1580 nM and 6310 nM.
For `Cc1cc(C)cc(C(=O)N2CCC(N3CCN(C4CCN(C(=O)c5cc(C(F)(F)F)cc(C(F)(F)F)c5)C(Cc5ccccc5)C4)CC3)CC2Cc2ccccc2)c1` (single isomer, unassigned) [Compound 11] the same measures were 39.8 nM, 631 nM and 251 nM.
For `Cn1cccc1CN1CCC(N2CCN(C3CCN(C(=O)c4cc(C(F)(F)F)cc(C(F)(F)F)c4)C(Cc4ccccc4)C3)CC2)CC1` (stereo not drawn) [Compound 9] the same measures were 1.26 nM, 631 nM and 501 nM.
For `Cc1cccc(C)c1NC(=O)CN1CCC(N2CCN([C@H]3CCN(C(=O)c4cc(C(F)(F)F)cc(C(F)(F)F)c4)[C@H](Cc4ccccc4)C3)CC2)CC1` [Compound 97], the results for the IC50 in assay [1], in assay [2] and in assay [3] were 0.316 nM, 501 nM and 398 nM, respectively.
